Tests used:
Assay type in all cases: physicochemical
[1] = Turbidity of the emulsion before and after dilution with water, by turbidity meter; settings: dilution factor not printed at the place
Description: A stable, optically clear, beverage is desirably obtained. Homogenization is carried out with a pressure of between 300 bar and 1500 bar, preferably about 800 bar. The homogenization pressure may be applied for between 1 and 5 passes. The ratio of emulsifier to carrier oil in the emulsion may be containing an excess amount of emulsifier in oil, which could be used to make an optically clear beverage. An optimal concentration of between 0 and 3 times more emulsifier in contrast to the oil phase will be tested. Cloudy beverages have a high turbidity, e.g., between 200 and 300 NTU, or even as high as 2,000 NTU. The aim is to develop a beverage with a turbidity<15 NTU. After production of the treatments, the turbidity will therefore be measured by a turbidity meter.
• 1. Before starting the experiment, the most optimal solubilizing phase of the emulsifier (organic or in aqueous phase) may be investigated. This could influence the droplet size and is different for every emulsifier (the movement of the emulsifier from the oil phase into the aqueous phase may be important in the formation of nano emulsions by this method). • 2. Prepare a pre-emulsion comprising the emulsifier in water or oil phase in order to fully dissolve the emulsifier. […] The concentrated emulsion may especially be made into a ready-to-drink clear beverage by diluting it with water. […]

[2] = Observation of foam formation of the emulsion / diluted beverage
[3] = Observation of physical stability: viscosity, phase separation, storage / shelf life; settings: before or after homogenization or on storage
From the text: • 1. Before starting the experiment, the most optimal solubilizing phase of the emulsifier (organic or in aqueous phase) may be investigated. This could influence the droplet size and is different for every emulsifier (the movement of the emulsifier from the oil phase into the aqueous phase may be important in the formation of nano emulsions by this method). • 2. Prepare a pre-emulsion comprising the emulsifier in water or oil phase in order to fully dissolve the emulsifier. When mixing the emulsifier into the solubilizing phase, an Ultra turrax is used at 10000 rpm (stand 37) for 3 minutes. If needed, the emulsifier and solubilized phase could be heated prior to mixing. • 3. Mix the pre-emulsion by slowly adding the oil phase to the aqueous phase while mixing with an Ultra turrax at 12000 rpm (stand 40) for 5 min). • 4. Let the pre-emulsion mixture rest for 1 hour. • 5. Homogenize the emulsion with a homogenizer preferably between 300-1200 bar, and between 3 and 5 passes. • 6. Collect the sample and measure the temperature directly. • 7. Allow it to cool completely before measuring the turbidity. • 8. The concentrated emulsion may especially be made into a ready-to-drink clear beverage by diluting it with water. Therefore, dilute a small amount of the obtained concentrated emulsion from step 6 with water to observe the clarity and turbidity of the final product. […]

## Sucrose monostearate
[1]
  Turbidity: > 15 NTU
[2]
  Foam formation: no foam formation
[3]
  Viscosity / phase separation / storage behaviour: became extremely viscous after a couple days of storage

Source: US20250090555A1, “METHOD FOR PRODUCING A CBD […] OR SOLID AND USE THEREOF” (Food4Innovations Ventures B.V., priority 2022, published 2025)
